Patent US12065654B2, “Plants having increased tolerance to herbicides” (BASF SE, priority 2014, dated 2024)

What was measured:
[1] = biological target: T1, Hordeum HPPD (SEQ ID NO:2) (Hordeum vulgare, UniProt O48604, A164G/R146V/R147D/R148G); experiment: HPPD activity assay; assay type: biochemical; details: Hordeum HPPD
T1 construct: His-tag (N); made in house; host or cells: E. coli BL21 (DE3)
Experimental: (§1) The activity assay for HPPD is based on the analysis of homogentisic acid by reversed phase HPLC.
(§2) The assay mixture can contain 150 mM potassium phosphate buffer pH 7.0, 50 mM L-ascorbic acid, 100 μM Catalase (Sigma-Aldrich), 1 μM FeSO4 and 0.2 units of purified HPPD enzyme in a total volume of 505 μl. 1 unit is defined as the amount of enzyme that is required to produce 1 nmol of HGA per minute at 20° C.
(§3) The reaction is allowed to proceed for 45 min at room temperature. The reaction is stopped by the addition of 50 μl of 4.5 M phosphoric acid. The sample is filtered using a […] pore size PVDF filtration device. 5 μl of the cleared sample is analyzed on an UPLC HSS T3 column (particle size 1.8 μm, dimensions 2, 1×50 mm; Waters) by isocratic elution using 90% 20 mM NaH2PO4 pH 2.2, 10% methanol (v/v).
(§4) HGA is detected electrochemically at 750 mV (mode: DC; polarity: positive) and quantified by integrating peak areas (Empower software; Waters).
(§5) Inhibitors are dissolved in DMSO (dimethylsulfoxide) to a concentration of 0.5 mM. From this stock solution serial five-fold dilutions are prepared in DMSO, which are used in the assay. The respective inhibitor solution accounts for 1% of the assay volume. Thus, final inhibitor concentrations range from 5 μM to 320 pM, respectively. Activities are normalized by setting the uninhibited enzyme activity to 100%. IC50 values are calculated using non-linear regression.
(§6) Using methods which are described in the above examples or well known in the art, purified recombinant wild-type HPPD enzymes are characterized with respect to their kinetic properties and sensitivity towards HPPD inhibiting herbicides. Apparent michaelis constants (Km) and maximal reaction velocities (Vmax) are calculated by non-linear regression with the software GraphPad Prism 5 (GraphPad Software, La Jolla, USA) using a substrate inhibition model. […] Weighted means (by standard error) of Km and IC50 values are calculated from at least three independent experiments. The Cheng-Prusoff equation for competitive inhibition (Cheng, Y. C.; Prusoff, W. H. Biochem Pharmacol 1973, 22, 3099-3108) is used to calculate dissociation constants (Ki).
(§7) Field performance of the HPPD enzyme, which is used as a herbicide tolerance trait may depend not only on its lack of sensitivity towards HPPD inhibiting herbicides but also on its activity. To assess the potential performance of a herbicide tolerance trait a tolerance index (TI) is calculated using the following formula: […]
(§8) Easy comparison and ranking of each trait is enabled by normalizing tolerance indexes on Arabidopsis wild-type HPPD.

[2] = biological target: T2, Arabidopsis HPPD (SEQ ID NO:53) (Arabidopsis thaliana, UniProt P93836); experiment: HPPD activity assay (HPLC of homogentisic acid); assay type: biochemical; details: Arabidopsis HPPD
T2 construct: His6 (N); made in house; host or cells: E. coli BL21 (DE3)
T2 sequence (P93836 1-445): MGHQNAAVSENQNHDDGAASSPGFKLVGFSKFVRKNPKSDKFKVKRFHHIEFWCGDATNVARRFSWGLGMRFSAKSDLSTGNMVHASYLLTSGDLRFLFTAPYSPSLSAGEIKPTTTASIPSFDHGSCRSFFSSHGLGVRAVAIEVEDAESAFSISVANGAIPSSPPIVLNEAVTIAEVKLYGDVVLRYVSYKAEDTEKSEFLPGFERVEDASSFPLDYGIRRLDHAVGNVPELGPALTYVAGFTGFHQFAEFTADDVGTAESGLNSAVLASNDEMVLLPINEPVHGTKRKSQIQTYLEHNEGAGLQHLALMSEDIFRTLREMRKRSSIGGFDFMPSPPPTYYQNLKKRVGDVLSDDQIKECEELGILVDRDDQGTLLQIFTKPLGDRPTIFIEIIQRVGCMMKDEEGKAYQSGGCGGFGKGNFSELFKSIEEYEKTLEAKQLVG
Experimental: as §1, §2, §3, §4, §5, §6, §7, §8

[3] = turnover number, substrate 4-HPP
[4] = read-out: Km [μM] (4-HPP), apparent michaelis constant

T1 sequence (O48604 whole entry R146V/R147D/R148G/A164G): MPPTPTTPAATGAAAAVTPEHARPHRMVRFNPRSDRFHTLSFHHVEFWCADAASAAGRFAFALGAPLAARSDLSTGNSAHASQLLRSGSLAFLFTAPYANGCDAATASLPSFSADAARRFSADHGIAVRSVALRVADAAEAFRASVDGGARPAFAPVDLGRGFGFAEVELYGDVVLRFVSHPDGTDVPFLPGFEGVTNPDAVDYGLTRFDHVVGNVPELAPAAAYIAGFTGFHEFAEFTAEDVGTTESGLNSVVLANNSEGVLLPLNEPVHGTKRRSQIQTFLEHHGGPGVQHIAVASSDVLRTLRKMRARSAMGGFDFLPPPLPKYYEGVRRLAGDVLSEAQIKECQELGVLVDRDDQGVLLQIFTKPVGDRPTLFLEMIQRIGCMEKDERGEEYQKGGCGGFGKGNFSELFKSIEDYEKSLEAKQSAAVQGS

O=C(O)C(=O)Cc1ccc(O)cc1 [Inhibitor 4-HPP, 4-hydroxyphenylpyruvate]
kcat [1, 3]: 11.5 s⁻¹
Km [1, 4]: 26 µM
kcat [2, 3]: 12.9 s⁻¹
Km [2, 4]: 13 µM
